Test results as given in patent US6559158B1, “Use of methylnaltrexone and related compounds to treat chronic opioid use side affects” (UR Labs, Inc., priority 1997, dated 2003).

How the values were obtained:
[1] = tested on: chronic methadone subjects with methadone-induced constipation; experiment: Example 1: intravenous methylnaltrexone, laxation response and stool frequency in methadone maintenance subjects; type: in vivo, human; conditions: for Stool frequency Methylnaltrexone (per day): during iv methylnaltrexone treatment
Protocol: Methylnaltrexone dose of 0.45 mg/kg was chosen to start this trial because this dose was previously given in normal volunteers and prevented opioid-induced delay of the oral-cecal transit time without any side effects (Yuan et al., Clin. Pharmacol Ther., 59:469-475 (1996)). Drug administration was performed single blind to the subjects in this pilot study. Thus, methylnaltrexone dose could be adjusted based on subjects' clinical response during the study.
All four subjects received placebo (normal saline) on Day 1. Thereafter, subjects received intravenous methylnaltrexone until the end of the study.
On Day 2 at 09:00 hours (h), Subjects 1 and 2 were given 0.45 mg/kg intravenous methylnaltrexone over 1 min. Subject 2 experienced severe abdominal cramps after receiving the compound and was withdrawn from the study. […] Beginning on Day 4, the study was resumed for Subject 1 using 0.45 mg/kg of methylnaltrexone, diluted with 50 ml normal saline and administered over 30 min. Infusion could be stopped at any time for complaints of abdominal pain.
For Subjects 3 and 4, the study was shortened from 8 to 5 days, methylnaltrexone dosage was decreased, and a new, three-step dosing procedure was established. Methylnaltrexone 0.05 mg/kg, mixed in 30 ml normal saline (first syringe), was infused intravenously over 10 min. The subject was then observed 10 min for drug response. If there was no response, then methylnaltrexone 0.1 mg/kg (second syringe), mixed in 30 ml normal saline, was infused over 15 min. Subject was observed 15 min for drug response. If there was no response, then methylnaltrexone 0.3 mg/kg (third syringe), mixed in 30 ml normal saline, was infused over 15 min.
After each test drug administration, seven blood samples (5 ml each) were obtained at time 0, 5, 30 min, and 1, 2, 4, 8 h, and three urine samples were collected at time 0, 2, and 4 h. Plasma and urine methylnaltrexone levels were determined by an HPLC technique with a detection limit of 2 ng/ml (Kim et al., 1989; Yuan et al., Clin. Pharmacol Ther., 59:469-475 (1996); both herein incorporated by reference). […] Subjects' bowel movements were witnessed and recorded by a research nurse.

[2] = tested on: chronic methadone subjects; experiment: Example 1: oral-cecal transit time (lactulose hydrogen breath test); type: in vivo, human; conditions: 150 min after placebo
Protocol: Vital signs were obtained at 0, 5, 10, 30, 60, 90 and 120 min after each test drug administration. For oral-cecal transit time measurement, 10 g lactulose (Solvay Pharmaceuticals, Marietta, Ga.) was administered orally at 09:00 h of Day 1, Day 5 and Day 8 for Subject 1; of Day 1 for Subject 2, and of Day 1, Day 3 and Day 5 for Subjects 3 and 4. Illicit drug use was monitored by random urine drug screens.
(§1) The oral-cecal transit time was assessed by the pulmonary hydrogen (H2) measurement technique, which measures pulmonary H2 that is produced when unabsorbed lactulose is fermented by colonic bacteria and excreted in the breath. This H2 production is reflected by a concomitant increase in breath H2 excretion. […] Dis. Sci., 32:829-832 (1987)). Hydrogen breath tests were conducted every 15 min until oral-cecal transit time was determined.

[3] = intravenous; cited from earlier work
[4] = tested on: chronic methadone subjects; experiment: Example 3: oral methylnaltrexone, opioid withdrawal and adverse effects; conditions: oral 0.3-3.0 mg/kg
Protocol: (§2) Since oral medication is a safer and more convenient way to deliver drugs than is intravenous administration, the efficacy of oral MNTX in relieving constipation in methadone maintained patients was evaluated. Twelve constipated adults (≦2 stool/week) were enrolled. Their daily methadone dose was 73.3±16.2 mg (41-100 mg), mean±SD (range). On day 1 at 9AM, subjects ingested 10 g lactulose (Solvay Pharmaceuticals) to assess oral-cecal transit time as described above, and a placebo capsule. On day 2 at 9AM, subjects again received lactulose, and a capsule containing methylnaltrexone (Mallinckrodt). Ascending oral methylnaltrexone doses (0.3, 1.0, and 3,0 mg/kg) were given to 3 groups of 4 subjects per group. Drug administrations were single-blinded to the subject. Laxation response and potential opioid withdrawal were recorded and blood samples were collected.

[5] = tested on: chronic methadone subjects; experiment: Example 3: oral methylnaltrexone, oral-cecal transit time; type: in vivo, human
Protocol: as §1
Twelve constipated adults (≦2 stool/week) were enrolled. […] Drug administrations were single-blinded to the subject.

[6] = Example 3: plasma level after oral methylnaltrexone
Protocol: as §2

[7] = tested on: normal volunteers; conditions: 0.45 mg/kg iv, cited from earlier work
[8] = tested on: normal volunteers; experiment: FIG. 5: oral-cecal transit time of normal volunteers given MNTX; type: in vivo, human; conditions: normal subjects, doses 2.1 mg/kg to 6.4 mg/kg (FIG. 5)
Protocol: FIG. 5 is a comparison of oral-cecal transit times of normal volunteers and methadone maintenance subjects showing the increased responsiveness of chronic opioid patients to MNTX. At doses ranging from 2.1 mg/kg to 6.4 mg/kg, normal subjects experienced about a 15-20% reduction in oral-cecal transit time, while at a dose of 3.0 mg/kg, methadone subjects experienced a greater than 35% reduction in oral-cecal transit time.

[9] = tested on: morphine-induced changes in oral-cecal transit time; experiment: Example 4: morphine-induced delay of oral-cecal transit time in subjects given opioids non-chronically; type: in vivo, human; conditions: 0.45 mg/kg methylnaltrexone plus 0.05 mg/kg morphine
Protocol: Sessions were separated by at least 1 week. Each session lasted approximately 7 hours, and the subjects received one of three injections: (1) placebo plus placebo, (2) placebo plus 0.05 mg/kg morphine, or (3) 0.45 mg/kg methylnaltrexone plus 0.05 mg/kg morphine. Injection I was given at the first session, and the subjects were blinded to the medication. Injections 2 and 3 were given in a random order, and the subjects and observers were blinded to the medication. Injection assignments were prepared by random selection on a computer and were sealed in envelopes.
After completion of the above three injections, we asked six of the subjects, beginning with those who had completed the study last, to return for a fourth injection (0.45 mg/kg methylnaltrexone plus 0.1 mg/kg morphine). This was done to evaluate the effects of methylnaltrexone with a higher does of morphine.
Results of the hydrogen breath test after different injections were analyzed with the use of the Wilcoxon matched-pairs signed-rank test, with p<0.05 considered to be statistically significant.

[10] = humans; cited from earlier work

SMILES: C[N@+]1(CC2CC2)CC[C@]23c4c5ccc(O)c4O[C@H]2C(=O)CC[C@@]3(O)[C@H]1C5 [methylnaltrexone, N-methylnaltrexone bromide]
- Laxation response ([1]; Subjects 1 and 2, 0.45 mg/kg iv): immediate positive Taxation
- Laxation response ([1]; Subjects 3 and 4, 0.05-0.15 mg/kg iv twice daily for 4 consecutive days): immediate laxation response
- Stool frequency Methylnaltrexone (per day) ([1]; #1 0.45 mg/kg bid, #2 0.45 mg/kg, #3 and #4 0.05-0.15 mg/kg bid, iv methylnaltrexone 0.45 mg/kg): 1 per day
- Stool frequency Methylnaltrexone (per day) ([1]; #1 0.45 mg/kg bid, #2 0.45 mg/kg, #3 and #4 0.05-0.15 mg/kg bid, iv methylnaltrexone 0.05-0.15, bid mg/kg): 2 per day
- Stool frequency Methylnaltrexone (per day) ([1]; #1 0.45 mg/kg bid, #2 0.45 mg/kg, #3 and #4 0.05-0.15 mg/kg bid, iv methylnaltrexone 0.05-015, bid mg/kg): 1.3 per day
- Stool frequency Methylnaltrexone (per day) ([1]; #1 0.45 mg/kg bid, #2 0.45 mg/kg, #3 and #4 0.05-0.15 mg/kg bid, iv methylnaltrexone 0.45, bid mg/kg): 1.5 per day
- stool frequency during the treatment period ([1]; four subjects, iv methylnaltrexone, 1-2 times per week before the study): approximately 1.5 stool per day
- Laxation response ([1]; iv methylnaltrexone, #1 0.45 mg/kg bid, #2 0.45 mg/kg, #3 and #4 0.05-0.15 mg/kg bid): Immediate
- oral-cecal transit time after methylnaltrexone, at the end of the study ([2]; Subject 1, 0.45 mg/kg iv bid): 90 min
- oral-cecal transit time after methylnaltrexone, at the end of the study ([2]; Subject 3, 0.05-0.15 mg/kg iv bid): 60 min
- oral-cecal transit time after methylnaltrexone, at the end of the study ([2]; Subject 4, 0.05-0.15 mg/kg iv bid): 60 min
- elimination half-life [3]: approximately 2 h
- opioid withdrawal ([4]; any subjects): no opioid withdrawal
- abdominal cramping ([4]; most subjects): very mild abdominal cramping
- adverse effects [4]: no adverse effects were reported
- reduction in oral-cecal transit time ([5]; methadone subjects, dose of 3.0 mg/kg (FIG. 5)): greater than 35%
- dose-related reduction of oral-cecal transit times ([5]; oral 0.3, 1.0, 3.0 mg/kg, p<0.05, Spearman rank correlation and linear regression): significant dose-response effect
- Peak plasma level ([6]; 4 subjects with detectable level (one 1.0 mg/kg, three 3.0 mg/kg oral), mean±SD, range 10-26): 17.8 ± 6.6 ng/mL
- subjects with undetectable methylnaltrexone in plasma ([6]; of 12 subjects, oral 0.3-3.0 mg/kg): Eight
- effect on opioid-induced delay in oral-cecal transit time ([7]; healthy volunteers, acute single doses): effectively prevented opioid-induced delay in oral-cecal transit time
- effect on analgesia ([7]; healthy volunteers): without affecting analgesia
- Laxation response ([7]; normal opioid naive subjects): without any laxation response
- reduction in oral-cecal transit time [8]: 15-20%
- oral-cecal transit time ([9]; 12 subjects, mean±SD, not significant vs baseline 104.6±31.1): 106.3 ± 39.8 min
- prevention of morphine-induced changes in oral-cecal transit time ([9]; p<0.01 vs morphine alone): 97%
- blood-brain barrier passage [10]: does not cross the blood-brain barrier
- de-methylation [10]: do not appreciably de-methylate
